These results are taken from a melting point compilation (Tetko et al.; mined from patent text by program, amines drawn as free bases though some values may be those of a salt).

`CC(=O)N(Cc1ccc(C(=O)O)cc1)c1ccc2c(c1)C(C)(C)CCC2(C)C`: the melting point (in general, the temperature, or range, at which the solid turns liquid) fell in the range of 219 to 223 °C.

Consider `OCc1cn(-c2ccc(-c3ccccc3)cc2)cn1`, for which the melting point was 173 to 177 °C.

In the case of `CNC(=S)N1CCN=C1COc1cccc(C)c1C`, the melting point amounted to 100 °C.

For the molecule `CCCN(CCC)C(C)C(=O)Nc1cccc2c1C(=O)c1c(NC(=O)C(C)N(CCC)CCC)cccc1C2=O` (stereo unspecified), the melting point lay in the range of 129 to 130 °C.

For `COC(=O)/C=C/c1cccc(OCCCCCOC(C)=O)c1`, the melting point is 65 to 67 °C.

For `COc1ccc2[nH]cc(CC(C)(C)[N+](=O)[O-])c2c1`, the melting point was in the range of 83 to 85 °C.

For `O=C(Cc1ccccc1Br)NCC1OC(n2cc(Br)c(=O)[nH]c2=O)CC1O` (stereo unspecified), the melting point lay in the range of 222 to 223 °C.

Consider `COc1cscc1NC=O`, for which the melting point lay in the range of 95 to 97 °C.

In the case of `NC(=O)Cn1ccc2ccccc21`, the melting point was in the range of 177 to 179 °C.

`CCC(Oc1cccc(OC)c1)C(=O)NCc1ccccc1` (stereo unspecified): the melting point lay in the range of 63 to 64 °C.

`CNC1C=Cc2cc(O)ccc2CC1` (stereo unspecified) displayed a melting point of 152 °C.

Regarding `O=C1Nc2ccccc2C1CCCCN1CCN(c2ccccn2)CC1` (stereo unspecified), the melting point lay within 131 to 132 °C.

In turn, `COc1cc2[nH]c(C)c(CCN3CCN(NC(=O)c4ccc(F)cc4)CC3)c2cc1OC` had a melting point of 116 to 119 °C.

Consider `C#CCCCOc1c(C)cc(-c2nc(C)no2)cc1C`, for which the melting point fell in the range of 38 to 40 °C.

Take `Nc1nc2[nH]c(CCC#Cc3ccc(C(=O)N[C@@H](CCC(=O)O)C(=O)O)o3)cc2c(=O)[nH]1`: the melting point lay within 193 to 194 °C.

Molecule `C[C@H]1C[C@H](OC(=O)C(C)(C)Oc2ccc(-c3ccccc3)cc2)CC(C)(C)C1` (relative stereo) gave a melting point of 96 °C.

Consider `CN1CCc2ccccc2C(c2ccccc2)C1(C)C` (stereo unspecified), for which the melting point lay in the range of 92 to 93 °C.

The molecule `ClCc1cccc(/C=C/c2cc(-c3ccsc3)cs2)c1` gave a melting point of 137 to 138 °C.

Molecule `C(=C\c1nc2ccccc2n1-c1ccncc1)/c1ccccc1` showed a melting point of 168 to 169 °C.

For `O=C(NCc1ccc(OC(F)(F)F)cc1)Nc1cccc2[nH]ccc12`, the melting point amounted to 177 °C.

As for `CCOC(=O)c1cc(=O)c2c(OCCOc3ccc([N+](=O)[O-])cc3)cccc2o1`, the melting point was 158 to 161 °C.

On to `Cc1cc(-c2cc(C(F)(F)F)n3ncc(C(=O)Nc4nc(C)c(S(=O)(=O)NC(C)(C)CO)s4)c3n2)ccc1C(F)(F)F`, for which the melting point was determined as 272 °C.

In the case of `COC(=O)c1cc(C(=O)N[C@@H](Cc2ccccc2)[C@H]2CN(C3(c4cccc(C(F)(F)F)c4)CC3)C(=O)O2)n2c1CN(S(C)(=O)=O)CC2`, the melting point is 104 °C.

Take `O=C(NC(CS)Cc1ccccc1)NC(CS)Cc1ccccc1` (stereo unspecified): the melting point lay in the range of 136 to 138 °C.

`COC(=O)C1=C(C)NC(C)=C(C(=O)OCCN2CCN(C(c3ccc(F)cc3)c3ccc(F)cc3)CC2)C1c1cccc(Cl)c1Cl` (stereo unspecified) had a melting point of 90 to 93 °C.

On to `CCc1c(C)nc2ccc(Cl)cn2c1=O`, for which the melting point fell in the range of 114 to 116 °C.

As to `CCCc1nc(S(=O)(=O)N(c2c(Cl)cccc2Cl)S(=O)(=O)c2nc(CCC)n(-c3ccccc3)n2)nn1-c1ccccc1`, the melting point was 262 to 264 °C.

As for `CC(C)[C@@H](NC(=O)OC(C)(C)C)[C@H]1CCn2c(cc3ccccc32)C1`, the melting point lay in the range of 122 to 124 °C.

The molecule `CN(C)CCC1CCCCN1CCN(C)C(=O)N1c2ccccc2C(=O)Nc2cccnc21` (stereo unspecified) came in with a melting point of 114 to 116 °C.

The molecule `CC(=O)OC(C)c1nc2c(C(F)(F)F)cccc2c(O)c1C(=O)Nc1nccs1` (stereo unspecified) yielded a melting point of 262 °C.

Molecule `COc1cc(Nc2c(C#N)cnc3cc(-c4ccc(C=O)cc4)sc23)cc(OC)c1OC` registered a melting point of 268 to 270 °C.

As to `CCOC1CC2(C)C(CCC3C4CCC(C(=O)OC)C4(C)CC(NCCC(C)C)C32)CC1O` (stereo unspecified), the melting point lay within 122 to 124 °C.

`CCc1cc(Oc2ccc(C(F)(F)F)cc2[N+](=O)[O-])nn1C(=O)NC` registered a melting point of 89 to 91 °C.

In the case of `COc1ccc(OC)c(Cc2nc3ccc(C)cc3c(=O)[nH]2)c1`, the melting point fell in the range of 188 to 189 °C.

As to `COc1ccc(N2CCN(CC(=O)Nc3nc(-c4ccccc4)cs3)CC2)cc1`, the melting point lay in the range of 186 to 189 °C.

`NP(N)(=S)NC1CCCCC1` registered a melting point of 148 to 150 °C.

`O=C(O)[C@H]1CC[C@@H](C(=O)N(Cc2ccccc2)OCc2ccccc2)C1` (relative stereo): the melting point fell in the range of 118 to 120 °C.

The molecule `CSc1nnc(-c2ccc3ncn(-c4ccc(OC(F)(F)F)cc4)c3c2)o1` displayed a melting point of 200 to 201 °C.

`Cn1ncc(N2CCCC2)c(-c2ccccc2C=O)c1=O`: the melting point was in the range of 140 to 141 °C.

As for `OCC(O)Cc1nccn1CCCCc1ccc(OCc2coc(/C=C/c3c(F)cccc3F)n2)cc1` (stereo unspecified), the melting point lay within 123 to 125 °C.

Molecule `CCOC(=O)C(C(=O)Nc1ccc(Br)cc1C)[N+](=O)[O-]` (stereo unspecified) displayed a melting point of 126 to 129 °C.

With `CCNC(=O)c1cc(N)ccc1Oc1cncc(Cl)c1`, the melting point was in the range of 126 to 128 °C.

`CCCCCCCCCCCCCCS(=O)(=O)c1cc(S(C)(=O)=O)ccc1-n1oc(C(C)(C)C)c(CCl)c1=O` yielded a melting point of 110 to 111 °C.

`ClCCc1cc(-c2ccc(Cl)cc2)n(-c2ccc(OCc3ccc4ccccc4n3)cc2)n1` returned a melting point of 105 °C.

As to `CC(C)(CO)NS(=O)(=O)c1cccc(NC(=O)c2cnn3c(C(F)F)cc(-c4ccc(Cl)cc4)nc23)c1`, the melting point was found to be 229 °C.

Take `CC(C)(C#N)c1cc(Cn2cncn2)cc(C(C)(C)C#N)c1`: the melting point fell in the range of 81 to 82 °C.

`C[C@H]([C@](O)(Cn1cncn1)c1ccc(F)cc1F)S(=O)(=O)CC(N)=O`: the melting point was 184 to 185 °C.

As for `C=C(C(=O)c1ccc(OC)c(Cl)c1Cl)C(C)C`, the melting point lay within 46 to 51 °C.

`COc1c(N2CCNCC2)c(F)cc2c(=O)c(C(=O)O)cn(C3CC3)c12` showed a melting point of 177 to 178 °C.

Molecule `CCOC(=O)NCC(O)c1cccc2c1CCN2C(=O)c1ccccc1` (stereo unspecified) showed a melting point of 143 °C.

Molecule `N#CC(N)=C(C#N)N=C=CCc1cnn(-c2c(Cl)cc(C(F)(F)F)cc2Cl)n1` showed a melting point of 207 to 209 °C.

With `CCCCOCCOc1ccc(-c2ccc(N3CCC(C)CC3)c(C=C(C)C(=O)O)c2)cc1`, the melting point lay in the range of 154 to 155 °C.

On to `CCOC(=O)c1ccc(OCCCCC(=O)c2ccc(Cl)s2)cc1`, for which the melting point lay within 87 to 89 °C.

`NC1CCC(CCN2CCN(c3ccccc3)CC2)CC1` (stereo unspecified) registered a melting point of 65 to 70 °C.

The molecule `CCSC1=NCC(=O)N1c1ccc(C)c(Cl)c1` displayed a melting point of 133 to 135 °C.

Molecule `COc1ccc(Nc2cccc3c2C(=O)N(C2CCC(=O)NC2=O)C3=O)c(OC)c1` (stereo unspecified) registered a melting point of 208 to 210 °C.

For the molecule `OC(Cn1ccnc1)c1ccc2ccccc2c1` (stereo unspecified), the melting point fell in the range of 156 to 160 °C.

Regarding `Cc1cnc2c(NC(=O)c3c(Cl)cccc3Cl)cccc2c1Oc1ccccc1`, the melting point was 168 to 170 °C.

`CCOc1ccc2c(c1)n(-c1ccccn1)c(=O)n2S(=O)(=O)c1ccc(C(=O)O)cc1OC` came in with a melting point of 241 °C.

`CNC(=O)c1cc(NCc2c(C)cccc2C)c2nc(C)n(C)c2c1` returned a melting point of 252 to 253 °C.

In the case of `CCC(=O)[C@@H](NC(=O)OCc1ccccc1)[C@@H](C)CC`, the melting point was in the range of 57 to 58 °C.

In turn, `O=C(O)c1ccccc1-c1nc(-c2cc(C(F)(F)F)cc(C(F)(F)F)c2)no1` came in with a melting point of 178 to 182 °C.

`COc1ccc(C(Cl)Sc2ccc(Cl)cc2)cc1` (stereo unspecified) gave a melting point of 76 to 77 °C.

Consider `CCCCOc1cc(/C=C(\OCC)C(=O)O)ccc1OCCc1ccc(NS(=O)(=O)CCCC)cc1`, for which the melting point is 164 °C.

As for `Cc1[nH]c(C(=O)NCC2=NNC(=O)CC2)c(C)c1-c1nc2ccc(C(=O)c3ccccc3)cc2[nH]1`, the melting point amounted to 287 °C.

Regarding `CCOc1cc2c(Nc3cc(OC)c(Cl)cc3Cl)c(C#N)cnc2cc1I`, the melting point was in the range of 213 to 215 °C.

`CNc1nc(-n2cc(C(=O)O)c(=O)c3cc(F)c(F)c(Cl)c32)c(F)cc1F` came in with a melting point of 236 to 242 °C.

For the molecule `Cc1ccccc1NC(=O)CN1C[C@@H](C)N(S(=O)(=O)c2cccc(N)c2)[C@@H](C)C1`, the melting point lay in the range of 202 to 203 °C.

With `Oc1ncc(-c2cccc(Cl)c2)cn1`, the melting point fell in the range of 235 to 236 °C.

`COc1ccc(C=C(C)C(=O)O)cc1F`: the melting point lay within 167 to 169 °C.

In the case of `O=C(c1cccc(C(F)(F)F)c1)c1cc2c(Br)cccc2o1`, the melting point was in the range of 91 to 92 °C.

In turn, `CCOC(=O)C1C(=O)Cc2ccccc21` (stereo unspecified) displayed a melting point of 58 to 61 °C.

Turning to `COc1ccc(CCc2ccc(NC(=O)C(=O)c3cc(Cl)ccc3O)cc2)cc1OC`, the melting point lay within 128 to 130 °C.

For `O=Cc1cc(-c2cccc(Cl)c2)c2cc(C(c3ccc(Cl)cc3)c3cccnc3)ccc2n1` (stereo unspecified), the melting point came out at 168 °C.

Turning to `CCCCCCCCCCCCNC(=O)c1cc(Br)c(OCCn2ncnn2)c(-c2cccc(C(F)(F)F)c2)c1`, the melting point was 75.6 to 76.2 °C.

On to `N#Cc1ccc(C=Cc2ccc(-c3cc4ccccc4o3)cc2)cc1`, for which the melting point is 314 to 315 °C.

Consider `CC(C)(C)c1cccc(C[C@H]2NC(=O)O[C@H]2c2cccc(Cl)c2)c1` (racemic), for which the melting point was in the range of 136 to 137 °C.

Turning to `COC(=O)C(=O)c1ccc(C(=O)NCCOc2ccc3ccccc3c2)cc1`, the melting point was 114 to 115 °C.

Turning to `CC(=O)c1ccc(NCc2c(O)ccc3c2CCCO3)cc1`, the melting point fell in the range of 213 to 215 °C.

The molecule `COc1cc(C=C2N=C(C)OC2=O)ccc1OC(C)=O` had a melting point of 205 to 206 °C.

Molecule `COc1cc(OC)c2c(=O)cc(-c3ccc(N(C)C)cc3)oc2c1C1=CCN(C)CC1` yielded a melting point of 148 to 150 °C.

`Fc1ccc(Nc2nc3ccccc3o2)cc1C(F)(F)F` came in with a melting point of 190 to 191 °C.

In turn, `COC(=O)C(=O)N(N=C(C#N)c1ccc(C#N)cc1)c1c(Cl)cc(C(F)(F)F)cc1Cl` registered a melting point of 194 to 195 °C.

In turn, `O=C(NC(Cc1ccccc1)C(=O)O)c1cc2cc(Cl)ccc2[nH]1` (stereo unspecified) displayed a melting point of 248 to 255 °C.

As to `NC(N)=NC(=O)Cc1c(-c2ccccc2)csc1-c1ccccc1`, the melting point lay in the range of 204 to 206 °C.

With `O=C(Oc1cccc2ccccc12)n1c2c(c(=O)n(C3CCCCO3)c1=O)CCC2` (stereo unspecified), the melting point was determined as 160 °C.
